Test results as given in US9980973B2, “Bicyclic heterocycle compounds and their uses in therapy” (ASTEX THERAPEUTICS LIMITED, priority 2012, dated 2018).
Where a name gives a salt, the structure may show the parent alone. Read-outs that look alike come from different tables or passages of the source.

Experiments:
[1] = tested on: EVSA-T (human breast carcinoma); assay: Anti-proliferative activity, Alamar Blue assay, EVSA-T; assay type: cell-based; settings: Homo sapiens, EVSA-T
[2] = biological target: T1, BIR3 domain of human XIAP (Homo sapiens, UniProt P98170); assay: XIAP in vitro competitive displacement binding assay (fluorescence polarization); settings: for inhibition at 0.04 µM: 1 h, PI at 0.04 μM, read-out: Xiap IC50 or PI μM (PI)
T1 construct: BIR3 domain of human XIAP (residues 252-350) fused to a His-tag; His-tag (cleaved yes); made in house; host or cells: Escherichia coli
T1 sequence (P98170 252-350): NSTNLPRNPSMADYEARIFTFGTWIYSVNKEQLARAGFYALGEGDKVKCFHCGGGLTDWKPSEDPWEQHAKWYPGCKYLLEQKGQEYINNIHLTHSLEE

[3] = 72 h, EVSA-T cells, 72 hours, Alamar Blue, read-out: EVSA-T prolif
[4] = read-out: EC50 in EVSA-T cell line assays

C[C@@H]1CN(CC(=O)N2CC(C)(C)c3ncc(Cc4ccc(F)cc4)cc32)[C@@H](CN2C[C@@H](C)N[C@@H](C)C2)CN1 [Example 22, 2-[(2R,5R)-2-{[(3R,5S)-3,5-Dimethylpiperazin-1-yl]methyl}-5-methylpiperazin-1-yl]-1-{6-[(4-fluorophenyl)methyl]-3,3-dimethyl-1H,2H,3H-pyrrolo[3,2-b]pyridin-1-yl}ethan-1-one dihydrochloride]
EC50 [1, 3]: 30 nM
EC50 [1, 4]: < 1000 nM
inhibition at 0.04 µM [2]: 40%

C[C@@H]1CN(CC(=O)N2CC(C)(C)c3ncc(Cc4ccccc4)cc32)[C@@H](CN2[C@H](C)COC[C@H]2C)CN1 [Example 29, 1-{6-Benzyl-3,3-dimethyl-1H,2H,3H-pyrrolo[3,2-b]pyridin-1-yl}-2-[(2R,5R)-2-{[(3R,5R)-3,5-dimethylmorpholin-4-yl]methyl}-5-methylpiperazin-1-yl]ethan-1-one dihydrochloride]
EC50 [1, 3]: 0.4 nM
EC50 [1, 4]: < 1000 nM
inhibition at 0.04 µM [2]: 47%

CC1N(C[C@H]2CN[C@H](C)CN2CC(=O)N2CC(C)(C)c3ncc(Cc4ccc(F)cc4)cc32)CCOC1(C)C (stereo partly drawn) [Example 32, 1-{6-[(4-Fluorophenyl)methyl]-3,3-dimethyl-1H,2H,3H-pyrrolo[3,2-b]pyridin-1-yl}-2-[(2R,5R)-5-methyl-2-[(2,2,3-trimethylmorpholin-4-yl)methyl]piperazin-1-yl]ethan-1-one dihydrochloride]
EC50 [1, 3]: 0.7 nM
EC50 [1, 4]: < 1000 nM
inhibition at 0.04 µM [2]: 42%

C[C@@H]1CN(CC(=O)N2CC(C)(C)c3ncc(Cc4ccc(F)cc4)cc32)[C@@H](CN2CCN(C)C(=O)[C@H]2C)CN1 [Example 34, (3R)-4-{[(2R,5R)-1-(2-{6-[(4-Fluorophenyl)methyl]-3,3-dimethyl-1H,2H,3H-pyrrolo[3,2-b]pyridin-1-yl}-2-oxoethyl)-5-methylpiperazin-2-yl]methyl}-1,3-dimethylpiperazin-2-one dihydrochloride]
EC50 [1, 3]: 0.85 nM
EC50 [1, 4]: < 1000 nM
inhibition at 0.04 µM [2]: 42%

C[C@@H]1CN(CC(=O)N2CC(C)(C)c3ncc(Cc4ccc(F)cc4)cc32)[C@@H](CN2CCNC(=O)[C@H]2C)CN1 [Example 35, (3R)-4-{[(2R,5R)-1-(2-{6-[(4-Fluorophenyl)methyl]-3,3-dimethyl-1H,2H,3H-pyrrolo[3,2-b]pyridin-1-yl}-2-oxoethyl)-5-methylpiperazin-2-yl]methyl}-3-methylpiperazin-2-one]
EC50 [1, 3]: 1.9 nM
EC50 [1, 4]: < 1000 nM
inhibition at 0.04 µM [2]: 54%
IC50 ([2]; or at least 50% inhibition of the activity at 0.1 μM, read-out: IC50 in the XIAP assay): < 0.1 µM

C[C@@H]1CN(CC(=O)N2CC(C)(C)c3ncc(Cc4ccc(F)cc4)cc32)[C@@H](CN2CCC[C@@H]2C(F)(F)F)CN1 [Example 38, 1-{6-[(4-Fluorophenyl)methyl]-3,3-dimethyl-1H,2H,3H-pyrrolo[3,2-b]pyridin-1-yl}-2-[(2R,5R)-5-methyl-2-{[(2R)-2-(trifluoromethyl)pyrrolidin-1-yl]methyl}piperazin-1-yl]ethan-1-one]
EC50 [1, 3]: 34 nM
EC50 [1, 4]: < 1000 nM
IC50 ([2]; plain number = IC50, average where more than one data point, read-out: Xiap IC50 or PI μM (IC50)): 0.48 µM

C[C@@H]1CN(CC(=O)N2CC(C)(C)c3ncc(Cc4ccc(F)cc4)cc32)[C@@H](CN2CCNC(=O)C2)CN1 [Example 42, 4-{[(2R,5R)-1-(2-{6-[(4-Fluorophenyl)methyl]-3,3-dimethyl-1H,2H,3H-pyrrolo[3,2-b]pyridin-1-yl}-2-oxoethyl)-5-methylpiperazin-2-yl]methyl}piperazin-2-one dihydrochloride]
EC50 [1, 3]: 11 nM
EC50 [1, 4]: < 1000 nM
inhibition at 0.04 µM [2]: 44%

CCC(F)(F)c1cnc2c(c1)N(C(=O)CN1C[C@@H](C)NC[C@@H]1CN1[C@H](C)COC[C@H]1C)CC2(C)C [Example 43, 1-[6-(1,1-Difluoropropyl)-3,3-dimethyl-1H,2H,3H-pyrrolo[3,2-b]pyridin-1-yl]-2-[(2R,5R)-2-{[(3R,5R)-3,5-dimethylmorpholin-4-yl]methyl}-5-methylpiperazin-1-yl]ethan-1-one, dihydrochloride]
EC50 [1, 3]: 8.3 nM
EC50 [1, 4]: < 1000 nM
inhibition at 0.04 µM [2]: 62%
